Molecules are shown by their SMILES.

The test has as its system isolated rat aortae. Kind of test: Vasorelaxing effect on the isolated rat aortae (Referential Example 1)-1). The conditions noted are these: inhibition of contraction induced by 40 mM KCl. Here is the method: The compounds of the present invention were tested for their physiological activities by measuring the tension of isolated rat aortae isometrically.
Thoracic aortae obtained from male Wistar rats (weighing 250-350 g) were cut into ring segments about 3 mm long. The ring preparation was placed in an organ bath filled with 10 ml of Krebs-Ringer solution that was maintained at 37°C and gassed with 95% O₂ - 5% CO₂.
The preparation in the organ bath was allowed to equilibrate under resting tension of 1 g. After equilibration period, the solution in the organ bath was replaced with an isotonic solution containing 40 mM KCl to contract the preparation.
After the contraction induced by KCl had reached plateau, the concentration-response relationship for the test compound was determined by means of cumulative addition.
The relaxation response of the test compounds was expressed as the percent inhibition of the contraction induced by KCl, and the IC₅₀ value, which is a concentration required for inhibiting the contraction induced by KCl to an extent of 50%, was calculated by the Probit method from the concentration-response curve.
As a reminder, the IC50 is the midpoint of a concentration-inhibition curve. A higher IC50 goes with weaker potency. `N#CN=C(N)c1ccncc1` [N-cyano-4-pyridine-carboxyimidamide, reference compound] came in with an IC50 of 180 µM.
With `N#CNC(=Nc1ccccc1)c1ccncc1` [(43), N-cyano-N'-phenyl-4-pyridinecarboximidamide], it took 52 µM to reach half-maximal inhibition (IC50).
The value for `N#CNC(=NCc1cc(C(F)(F)F)cc(C(F)(F)F)c1)c1cccnc1` [(25), N-cyano-N'-[3,5-bis(trifluoromethyl)benzyl]-3-pyridinecarboximidamide] was 24 µM; that for `N#CN=C(NCCO[N+](=O)[O-])c1ccc(Cl)nc1` [(52), N-cyano-N'-(2-nitroxyethyl)-3-(6-chloropyridine)carboximidamide] was 11 µM; that for `N#CNC(=NCc1cccc(OCc2ccccc2)c1)c1cccnc1` [(26), N-cyano-N'-(3-benzyloxybenzyl)-3-pyridinecarboximidamide] was 23 µM.
As for `CC(N=C(NC#N)c1ccccn1)C(C)(C)C` (stereo not shown) [(3), N-cyano-N'-(1,2,2-trimethylpropyl)-2-pyridinecarboximidamide], 49 µM corresponded to half-maximal inhibition (IC50).
The value for `COc1ccccc1CCN=C(NC#N)c1ccncc1` [(48), N-cyano-N'-[2-(2-methoxyphenyl)ethyl]-4-pyridinecarboximidamide] was 73 µM; that for `Cc1ccc(CN=C(NC#N)c2ccccn2)cc1` [(6), N-cyano-N'-(4-methylbenzyl)-2-pyridinecarboximidamide] was 51 µM.
With `N#CNC(=NCCSc1ccccc1)c1ccncc1` [(49), N-cyano-N'-(2-phenylthioethyl)-4-pyridinecarboximidamide], it took 62 µM to reach half-maximal inhibition (IC50).
`N#CNC(=NCCc1ccc(Cl)cc1)c1cccnc1` [(30), N-cyano-N'-[2-(4-chlorophenyl)ethyl]-3-pyridinecarboximidamide] came in with an IC50 of 43 µM.
The value for `N#CNC(=NC(c1ccccc1)c1ccccc1)c1cccnc1` [(34), N-cyano-N'-diphenylmethyl-3-pyridinecarboximidamide] was 38 µM; that for `N#CNC(=NCC(OCc1ccccc1)c1ccccc1)c1cccnc1` (stereo not shown) [Compound (38), N-cyano-N'-(2-benzyloxy-2-phenylethyl)-3-pyridinecarboximidamide] was 68 µM; that for `N#CN=C(NCCc1ccccc1)c1ccc(Cl)nc1` [(53), N-cyano-N'-(2-phenylethyl)-3-(6-chloropyridine)carboximidamide] was 77 µM.
The value for `COc1ccc(CN=C(NC#N)c2cccnc2)cc1` [(19), N-cyano-N'-(4-methoxybenzyl)-3-pyridinecarboximidamide] was 37 µM; that for `CC(N=C(NC#N)c1ccncc1)C(O[N+](=O)[O-])c1ccc([N+](=O)[O-])cc1` (stereo not shown) [(51), N-cyano-N'-[1-methyl-2-(4-nitrophenyl)-2-nitroxyethyl]-4-pyridinecarboximidamide] was 13 µM; that for `N#CNC(=NC(Cc1ccccc1)c1ccccc1)c1cccnc1` (stereo not shown) [(35), N-cyano-N'-(1,2-diphenylethyl)-3-pyridinecarboximidamide] was 18 µM.
Consider `N#CNC(=NCc1ccc(C(F)(F)F)cc1)c1cccnc1` [(21), N-cyano-N'-[4-(trifluoromethyl)benzyl]-3-pyridinecarboximidamide], for which the IC50 came out at 70 µM.
`N#CNC(=NCc1ccc(Cl)c(Cl)c1)c1ccncc1` [(44), N-cyano-N'-(3,4-dichlorobenzyl)-4-pyridinecarboximidamide] returned a half-inhibitory concentration (IC50) of 19 µM.
The value for `N#CNC(=NCCC(c1ccccc1)c1ccccc1)c1cccnc1` [(37), N-cyano-N'-(3,3-diphenylpropyl)-3-pyridinecarboximidamide] was 28 µM; that for `COc1ccc(N=C(NC#N)c2ccccn2)cc1` [(5), N-cyano-N'-(4-methoxyphenyl)-2-pyridinecarboximidamide] was 65 µM.
The figure for `CC(N=C(NC#N)c1ccccn1)C(O)c1ccccc1` (stereo not shown) [(11), N-cyano-N'-(2-hydroxy-1-methyl-2-phenylethyl)-2-pyridinecarboximidamide] is 12 µM.
The figure for `N#CNC(=NCc1ccc([N+](=O)[O-])cc1)c1cccnc1` [(23), N-cyano-N'-(4-nitrobenzyl)-3-pyridinecarboximidamide] is 98 µM.
In the case of `N#CNC(=NCCCc1ccccc1)c1cccnc1` [(33), N-cyano-N'-(3-phenylpropyl)-3-pyridinecarboximidamide], it took 95 µM to reach half-maximal inhibition (IC50).
The figure for `N#CNC(=NCCCO[N+](=O)[O-])c1cccnc1` [(14), N-cyano-N'-(3-nitroxypropyl)-3-pyridinecarboximidamide] is 20 µM; for `N#CNC(=NCc1ccc(Cl)cc1)c1ccccn1` [(7), N-cyano-N'-(4-chlorobenzyl)-2-pyridinecarboximidamide] it is 23 µM; for `N#CNC(=NCCCO[N+](=O)[O-])c1ccncc1` [(42), N-cyano-N'-(3-nitroxypropyl)-4-pyridinecarboximidamide] it is 20 µM.
`N#CNC(=NCc1cccs1)c1ccccn1` [(12), N-cyano-N'-(2-thienylmethyl)-2-pyridinecarboximidamide] displayed an IC50 of 24 µM.
The figure for `Cc1ccc(N=C(NC#N)c2cccnc2)cc1` [(16), N-cyano-N'-(4-methylphenyl)-3-pyridinecarboximidamide] is 17 µM.
The figure for `N#CNC(=NCC(c1ccccc1)c1ccccc1)c1cccnc1` [(36), N-cyano-N'-(2,2-diphenylethyl)-3-pyridinecarboximidamide] is 16 µM; for `N#CNC(=NCC(O[N+](=O)[O-])c1ccc([N+](=O)[O-])cc1)c1cccnc1` (stereo not shown) [(32), N-cyano-N'-[2-(4-nitrophenyl)-2-nitroxyethyl]-3-pyridinecarboximidamide] it is 78 µM; for `CC(C)(C)CN=C(NC#N)c1ccccn1` [(2), N-cyano-N'-(2,2-dimethylpropyl)-2-pyridinecarboximidamide] it is 60 µM.
The value for `N#CNC(=NCCc1ccc(OCc2ccccc2)c(OCc2ccccc2)c1)c1cccnc1` [(39), N-cyano-N'-[2-(3,4-dibenzyloxyphenyl)ethyl]-3-pyridinecarboximidamide] was 48 µM.
Consider `COc1ccccc1CCN=C(NC#N)c1cccnc1` [(28), N-cyano-N'-[2-(2-methoxyphenyl)ethyl]-3-pyridinecarboximidamide], for which the IC50 amounted to 70 µM.
`N#CNC(=NCc1ccc(Cl)c(Cl)c1)c1cccnc1` [(24), N-cyano-N'-(3,4-dichlorobenzyl)-3-pyridinecarboximidamide] had a half-maximal inhibitory concentration (IC50) of 21 µM.
The compound `N#CN=C(N)c1cccnc1` [N-cyano-3-pyridine-carboxyimidamide, reference compound] displayed an IC50 of 40000 µM.
The value for `N#CNC(=NCCc1ccc(Cl)cc1)c1ccccn1` [(10), N-cyano-N'-[2-(4-chlorophenyl)ethyl]-2-pyridinecarboximidamide] was 40 µM; that for `CC(C)(C)CCN=C(NC#N)c1cccnc1` [(15), N-cyano-N'-(3,3-dimethylbutyl)-3-pyridinecarboximidamide] was 95 µM.
For `N#CNC(=NCc1ccc(Cl)cc1)c1cccnc1` [(22), N-cyano-N'-(4-chlorobenzyl)-3-pyridinecarboximidamide], half-maximal inhibition (IC50) was put at 22 µM.
The value for `N#CNC(=NCc1cccc(OCc2ccccc2)c1)c1ccncc1` [(46), N-cyano-N'-(3-benzyloxybenzyl)-4-pyridinecarboximidamide] was 30 µM; that for `CN(C)c1ccc(CN=C(NC#N)c2cccnc2)cc1` [Compound (20), N-cyano-N'-(4-dimethylaminobenzyl)-3-pyridinecarboximidamide] was 78 µM; that for `Cc1ccc(CN=C(NC#N)c2cccnc2)cc1` [(18), N-cyano-N'-(4-methylbenzyl)-3-pyridinecarboximidamide] was 22 µM.
The compound `COc1ccc(NC(=NC#N)c2cccnc2)c(OC)n1` [(40), N-cyano-N'-3-(2,6-dimethoxypyridine)-3-pyridinecarboximidamide] returned a concentration for half-maximal inhibition (IC50) of 40 µM.
For the compound `N#CNC(=NCC(O[N+](=O)[O-])c1ccc([N+](=O)[O-])cc1)c1ccncc1` (stereo not shown) [(50), N-cyano-N'-[2-(4-nitrophenyl)-2-nitroxyethyl]-4-pyridinecarboximidamide], the IC50 was 14 µM.
The figure for `Cc1ccc(CCN=C(NC#N)c2ccccn2)cc1` [(9), N-cyano-N'-[2-(4-methylphenyl)ethyl]-2-pyridinecarboximidamide] is 72 µM; for `N#CNC(=NCCc1ccc(Cl)cc1)c1ccncc1` [(47), N-cyano-N'-[2-(4-chlorophenyl)ethyl]-4-pyridinecarboximidamide] it is 40 µM.
With `N#CNC(=Nc1ccccc1)c1ccccn1` [(4), N-cyano-N'-phenyl-2-pyridinecarboximidamide], the 50% inhibitory concentration (IC50) is 31 µM.
The value for `CSc1ccc(CN=C(NC#N)c2ccncc2)cc1` [(45), N-cyano-N'-(4-methylthiobenzyl)-4-pyridinecarboximidamide] was 49 µM.
The figure for `N#CNC(=NCCc1ccc(NCc2ccccc2)cc1)c1cccnc1` [(31), N-cyano-N'-[2-(4-benzylaminophenyl)ethyl]-3-pyridinecarboximidamide] is 16 µM; for `N#CNC(=NCc1ccc(C(F)(F)F)cc1)c1ccccn1` [(8), N-cyano-N'-[4-(trifluoromethyl)benzyl]-2-pyridinecarboximidamide] it is 57 µM.

Source of the values: patent publication EP0388528B1, “Carboximidamide derivatives” (KIRIN BEER KABUSHIKI KAISHA, priority 1988, dated 1990).
